We go through two compounds from patent US9023761B2, “Compositions and methods for blocking ethylene response in plants using 3-cyclopropyl-1-enyl-propanoic acid salt” (Yissum Research Development Company of the Hebrew …, priority 2007, dated 2015).

Like-named read-outs stand apart in the source and are kept apart here.

For data set [1] the following is noted: background statement; cited from earlier work.
The nature of data set [2]: Solubility and stability in water. Type of data set: physicochemical.
In the next data set the test system is Tomato leaf petiole. As to the kind of experiment: Ethylene-induced epinasty of tomato leaf petioles. More on the design: key to Protection (effect grade): + = weak effect; ++ = medium effect; +++ = strong effect. Type of data set: in vivo. Particulars: ethylene treatment +. As to the method: (§1) Each kind of the model plants was exposed to different concentrations of CPAS in an aqueous solution for 6-18 h as a pre-treatment following exposure for 24 h to different concentration of ethylene. In the case of banana and avocado fruits, the peel was brushed with different concentrations of CPAS aqueous solution, in the presence of commercially available Tween 20 surfactant (0.025%) as pre-ethylene treatment, and the delay in days elapsed until color breakdown (from green to yellow in banana—Table 1, FIG. 4; and from green to black in avocado—Table 1, FIG. 6) over air control was recorded as a criterion of the efficiency of the ethylene antagonist. In the case of peach fruit, the surfactant BAS 70 (generously supplied by BASF, Germany) was used. The results were recorded after incubation of 2-4 days in controlled conditions (Table 1, FIG. 11). When using cut flower models (FIGS. 1-3) CPAS aqueous solutions±surfactants was applied by loading either the cut flower or the isolated petals for 18 h in CPAS aqueous solutions prior to ethylene treatment. The number of days of the delay of senescence of the tested plant materials over water control was recorded, by following the visual wilting of the flowers. Tomato seedlings were sprayed with CPAS aqueous solutions in the presence of commercial available ‘Kinetic’ organo-silicone surfactant blend, kept for calibration in a growth chamber for 8-10 hr before spraying with CPAS solution or before loading CPSA by excised seedlings via their lower stem cut surface (Table 1, FIG. 10) in order to antagonize ethylene-induced epinasty of leaf petioles (Table 1, FIGS. 8-9). In the case of citrus leaf explants, abscission was tested at the laminar abscission zone. CPAS in aqueous solution, was either pre-treated by direct loading of the treatment solutions into the proximal side of the explant for 17 h, or by dipping the whole explant in the tested solutions for 30 to 60 sec in the presence of commercially available Tween 20 TM surfactant (0.025%. In all cases, a significant delaying action of ethylene-induced responses, was recorded in all the plant systems examined (Table 1, FIG. 7). In further examples, the concentrations of the CPAS aqueous solutions were used in the range of the results obtained in the above experiment.
For the spraying experiment (FIG. 8) tomato plants from green house (3 weeks old) were brought for calibration in a growth chamber (8-10 hr, at 22° C. and 80% RH, under continuous fluorescent light). […]
In a second experiment the changes of the degree of the petiole from the branch, that expresses the epinastic response, was calculated (FIG. 9). […]

Another data set has as its system Banana fruit. As to the kind of experiment: Ethylene-induced ripening of green banana fruit (peel color, firmness). Type of data set: in vivo. As to the method: as §1
Banana fruits were treated by brushing with aqueous solution of water soluble CPAS (200 μg mL^−1). After 18 hr all treated and untreated fruits were exposed to ethylene (300 μL^−1) to hasten ripening. All fruits were ventilated and held in air at 22° C. and 92% RH for assessment of their ripening value. Photos were taken on day 12 (untreated—FIG. 4A, treated FIG. 4B).
Additionally, banana fruits were treated by brushing with aqueous solution of CPAS ([…], and commercially available surfactant Tween 20 [0.025%]) and after 18 hr were exposed to ethylene (300 μL/L^−1) for 24 hr to hasten ripening. Fruits were kept at 24° C. and 92% RH. The fruits kept in air and treated by CPAS only served as comparative ones. Results were collected on day 7 (FIG. 5A).

For a further data set, the system named is Peach fruit. As to the kind of experiment: Peach fruit firmness / shelf life after spraying. Type of data set: in vivo. As to the method:
as §1, with “When using cut flower models (FIGS. 1-3) CPAS aqueous solutions±surfactants was applied by loading either the cut flower or the isolated petals for 18 h in CPAS aqueous solutions prior to ethylene treatment.” left out, “Tomato seedlings were sprayed with CPAS aqueous solutions in the presence of commercial available ‘Kinetic’ organo-silicone surfactant blend, kept for calibration in a growth chamber for 8-10 hr before spraying with CPAS solution or before loading CPSA by excised seedlings via their lower stem cut surface (Table 1, FIG. 10) in order to antagonize ethylene-induced epinasty of leaf petioles (Table 1, FIGS. 8-9). In the case of citrus leaf explants, abscission was tested at the laminar abscission zone.” left out
Peach fruits were harvested and brought to the lab and immediately sprayed with different concentrations of CPAS solution (K-phosphate buffer, 20 mM, and 0.1% organo-silicone surfactant, namely BAS 90370S by BASF Germany), and kept at 22° C. and 90% humidity for up to 4 days. […] Firmness was recorded by a penetrometer (chatillon, using a disc of 8 mm diameter), after removing a 15 mm square peel strip in order to allow measuring the firmness directly on the flesh of the fruit.

For another data set, the system named is Avocado fruit. As to the kind of experiment: Ethylene-induced ripening of 'Hass' avocado fruit (peel color, firmness, peduncle abscission). Type of data set: in vivo. As to the method:
as §1
“Hass” avocado fruits with long peduncles were loaded with water soluble CPAS by dipping the peduncle cut surface for 30 hr in aqueous solution containing 100 μg/mL^−1 of CPAS. The untreated fruits with peduncles immersed in water. After the treatment with CPAS all fruits were exposed for 24 hr to the ethylene (250 μL L^−1). Afterwards the fruits were held at 24° C. and 92% RH for assessment their maturity parameters (peel color change and pulp firmness) and abscission of the peduncle. Photos were taken on day 5 after treatment (untreated—FIG. 6A, treated FIG. 6B).

Another data set has as its system Petunia flower. As to the kind of experiment: Petunia cut flower vase life after ethylene. Type of data set: in vivo. As to the method:
as §1, with “Tomato seedlings were sprayed with CPAS aqueous solutions in the presence of commercial available ‘Kinetic’ organo-silicone surfactant blend, kept for calibration in a growth chamber for 8-10 hr before spraying with CPAS solution or before loading CPSA by excised seedlings via their lower stem cut surface (Table 1, FIG. 10) in order to antagonize ethylene-induced epinasty of leaf petioles (Table 1, FIGS. 8-9). In the case of citrus leaf explants, abscission was tested at the laminar abscission zone.” left out, “experiment. […]” for “experiment.”

The subject of the next data set is Carnation flower. As to the kind of experiment: Carnation cut flower vase life. Type of data set: in vivo. As to the method: as §1
Carnation cut flowers treated by dipping cut surface for 18 hr in aqueous solution containing 8 μg mL^−1 of CPAS. Untreated flowers were held in water. After treatment all flowers are kept in water at 22° C. and 80% RH under continuous fluorescent light for assessment of their vase life. Photo was taken on day 14.

A further data set deals with Citrus leaf explants. As to the kind of experiment: Abscission of citrus leaf explants. Type of data set: in vivo. Particulars: for Minimum apparent concentration / Protection time (days over control): Citrus leaf abscission, ethylene treatment +. The protocol:
as §1
The application of water soluble CPAS to citrus leaf explants was studied under air, antagonizing endogenous ethylene-induced abscission, comparing two methods of applications; either by dipping their petiole cut surfaces for 6 h in CPAS aqueous solution, or by dipping the whole explants for 30 sec. in the same treatment solution plus or minus a surfactant. In this experiment Tween-20 (0.025%) was chosen as surfactant, but any un-ionic surfactant may be chosen. The experiment indicates, as expected, that surfactants improve the penetration into plant tissues. However, if application is preferred via a cut surface like with cut flowers, there is no need to add a surfactant to the treatment solution (FIG. 7).
FIG. 7 represents a set of three figures, wherein explants are loaded with CPAS by dipping their petiole cut surfaces for 6 h in CPAS aqueous solution (A); dipped for 30 sec. in the same treatment solution (B); and treated as in B, but including Tween-20 [0.025%] (C).

The subject of the next data set is Carnation flower petal. As to the kind of experiment: Ethylene-induced senescence of isolated carnation petals. Type of data set: in vivo. The protocol:
as §1
The following test was designed to further establish the ability of water soluble CPAS in aqueous solution to delay the ethylene-induced senescence of isolated carnation petals. The experiment was carried out in a growth chamber to ensure optimal environmental conditions (light, temperature and relative humidity). Carnation petals were loaded with CPAS by dipping their cut surface for 18 hr in aqueous solution containing 81 μg mL^−1 of CPAS. Untreated petals that were held in water. […]

[3] abbreviates: Banana fruit, peel color, brushing, ethylene treatment +.
Setting [4] is: Peach fruit, firmness, spraying, ethylene treatment −.
Where [5] appears, read: Avocado fruit, peel color, loading, ethylene treatment +.
[6] abbreviates: avocado, 100 μg/mL loading via peduncle 30 hr, ethylene 250 μL L^−1 24 hr.
Setting [7] is: Petunia flower, vase life, loading, ethylene treatment +.
[8] abbreviates: Carnation flower, vase life, loading, ethylene treatment −.
The mark [9] stands for this setting: Carnation flower petal, senescence, loading, ethylene treatment +.

Take `CC1=CC1` [1-MCP, 1-methylcyclopropene]: in [1], the Solubility in water entry was “insolubility in water”.
With `O=C([O-])CCC1=CC1.[Na+]` [CPAS, cyclopropyl-1-enyl-propanoic acid sodium salt], the Solubility in water result in data set [2] is on record as “soluble”. For the same compound, in data set [2], the Stability in water entry is “stable in water”. The Minimum apparent concentration worked out at 9 µg/mL in the data set on Tomato leaf petiole (loading); 160 µg/mL with Tomato leaf petiole (spraying); 200 µg/mL in the data set on Banana fruit (setting [3]); 10 µg/mL in the data set on Peach fruit (setting [4]); 100 µg/mL in the data set on Avocado fruit (setting [5]); 98 µg/mL in the data set with Petunia flower (setting [7]). The Minimum apparent concentration turned out to be 0.8 µg/mL in the data set on Carnation flower (setting [8]), 42 µg/mL in the data set on Citrus leaf explants (dipping), 32 µg/mL with Citrus leaf explants (loading) and 81 µg/mL in the data set with Carnation flower petal (setting [9]). Moreover, the “Protection (effect grade)” value with Tomato leaf petiole (loading) and in the data set with Tomato leaf petiole (spraying) was “*+++” each time. In addition, the “Protection time (days over control)” value in the data set on Banana fruit (setting [3]) is 6 days; in the data set on Peach fruit (setting [4]) it was 4 days; with Avocado fruit (setting [5]) it was 5 days; in the data set with Petunia flower (setting [7]), 17 days; with Carnation flower (setting [8]) it was 10 days; with Citrus leaf explants (dipping), 2 days. For the same compound, the “Protection time (days over control)” value with Citrus leaf explants (loading) turned out to be 7 days; in the data set on Carnation flower petal (setting [9]) it was 11 days. Also, the “Delaying the decrease in fruit firmness” value with Banana fruit (banana, 1000 μg mL^−1 brushing, ethylene 24 hr) was “ineffective”. Moreover, the “Delay of color break of the fruit” value in the data set on Banana fruit (banana, brushing, ethylene, effective at the higher concentrations) is “significantly delayed”. Moreover, the “Delay of banana peel de-greening” value in the data set with Banana fruit (summary statement) is given as at least 12 days. The “Shelf life of climacteric fruit (peach)” value in the data set with Peach fruit (spraying with surfactant, 22° C., up to 4 days) is on record as “expand the shelf life”. For the same compound, in the data set with Avocado fruit (setting [6]), the Fruit softening entry is recorded as “a little delaying effect”. For the same compound, in the data set on Avocado fruit (setting [6]), the Peduncle abscission entry is “significantly delayed”. In addition, the Skin color development entry in the data set with Avocado fruit (setting [6]) is “significantly delayed”. The “Delay of color change of 'Hass' avocado fruit” value with Avocado fruit (summary statement) is recorded as at least 5 days. Also, in the data set with Petunia flower (summary statement), the “Prolonging the vase-life of petunia cut flowers” value is at least 14 days. In addition, the “Longevity of carnation cut flowers during vase life” value in the data set on Carnation flower (8 μg mL^−1 dipping cut surface 18 hr, day 14, vs untreated) was “longevity increase”. In addition, the “Prolonging the vase-life of carnation cut flowers” value in the data set on Carnation flower (summary statement) was at least 14 days. Moreover, the “Delay of abscission of citrus leaf explants” value with Citrus leaf explants (summary statement) is reported as at least 7 days. The “Ethylene antagonistic effect on petal senescence” value in the data set with Carnation flower petal (81 μg mL^−1 loading 18 hr, ethylene 5 μl L^−1 24 hr, measured after 6 days) is “highly significant”. Also, the Toxic symptoms entry in the data set on Carnation flower petal (carnation petals, 81 μg mL^−1 loading 18 hr) is listed as “No toxic symptoms were observed”.
